According to article PMC4373826, “Antiviral Effect of Methylated Flavonol Isorhamnetin against Influenza” (PLoS ONE, 2015):

Legend:
[1] = test system: influenza A/PR/8/34 (H1N1); assay: microbe, parasite or virus in culture; conditions: MDCK
[2] = test system: virus-induced autophagic puncta / acidic vesicular organelles in MDCK cells; assay: Virus-induced autophagy assay (AVO staining with AO and MDC); format: cell-based, canine; conditions: 50 μM
Procedure: To examine the ability of isorhamnetin to block the formation of acidic vesicular organelles (AVOs) after influenza A virus infection, we used various vital staining methods for AVOs, as described previously. Briefly, MDCK cells were cultured on 24-well plates until 80% confluence. Cells were infected with influenza A/PR/08/34 (H1N1) virus as described previously and treated with 50 μM of isorhamnetin using the 3 aforementioned methods of flavonoid treatment (pre-treatment, co-treatment, and post-treatment methods). Cells were stained with 5 μg/mL acridine orange (AO) (Sigma-Aldrich) and 50 μM of monodansylcadaverine (MDC) (Sigma-Aldrich)for 15 min at 37°C and washed 3 times with PBS, after which the cells were examined under a fluorescence microscope (Carl Zeiss, Jena, Germany) to allow detection of autophagic puncta.

What does the source list for `COc1cc(-c2oc3cc(O)cc(O)c3c(=O)c2O)ccc1O` [Isorhamnetin, isorhamnetin]?
EC50 ([1]; 0.5 h, Co-treatment (0.5 hr)): 76 µM; EC50 ([1]; 1 h, Co-treatment (1 hr)): 42 µM; EC50 ([1]; 2 h, Co-treatment (2 hr)): < 30 µM; EC50 ([1]; 48 h, Post-treatment): 23 µM; EC50 ([1]; Pre-treatment (1 hr)): 51 µM; EC50 ([1]; Pre-treatment (12 hr)): 65 µM; EC50 ([1]; Pre-treatment (24 hr)): 88 µM; virus-induced autophagic puncta formation and AVO acidification ([2]; post-treatment): almost completely blocked; virus-induced autophagic puncta formation and acidification of AVOs ([2]; pre-, co-, and post-treatment): significantly suppressed
